The results in this text go back to patent publication US4195172A.

≈ marks a conversion by molar mass, not a printed value. Where “and” joins values, the source holds several entries; their conditions need not be identical. Identical values can stand only once. Counter-ions that a name gives are not always drawn.

The first assay is described as follows: IC50 of products of the examples and original antibiotics. In kind it is cell-based. The settings on record: test organism not given.
`C[C@@H]1[C@H](O)[C@@H](C)/C=C/C=C/C=C/C=C/C=C/C=C/C=C/[C@H](O[C@@H]2O[C@H](C)[C@@H](O)[C@H](NC3O[C@H](CO)[C@@H](O)[C@H](O)[C@H]3O)[C@@H]2O)C[C@@H]2O[C@](O)(C[C@@H](O)C[C@@H](O)[C@H](O)CC[C@@H](O)C[C@@H](O)CC(=O)O[C@H]1C)C[C@H](O)[C@H]2C(=O)O` (some centres unmarked) [II, tris salt of the N-glycosyl derivative of amphotericin B] returned an IC50 of 0.6 µg/mL.

`C[C@@H]1[C@H](O)[C@@H](C)/C=C/C=C/C=C/C=C/C=C/C=C/C=C/[C@H](O[C@@H]2O[C@H](C)[C@@H](O)[C@H](NC3O[C@H](CO)[C@@H](O)[C@H](O)[C@H]3O)[C@@H]2O)C[C@@H]2O[C@](O)(C[C@@H](O)C[C@@H](O)[C@H](O)CC[C@@H](O)C[C@@H](O)CC(=O)O[C@H]1C)C[C@H](O)[C@H]2C(=O)O` (some centres unmarked) [Example I, sodium salt of the N-glycosyl derivative of the amphotericin B]: the IC50 worked out at 0.05 µg/mL.

As to polifungin [reference compound], the IC50 is 0.15 µg/mL and 0.16 µg/mL. Same read-out and setting: in the case of `C[C@@H]1[C@H](O)[C@@H](C)/C=C/C=C/C=C/C=C/C=C/C=C/C=C/[C@H](O[C@@H]2O[C@H](C)[C@@H](O)[C@H](NC3O[C@H](CO)[C@@H](O)[C@H](O)[C@H]3O)[C@@H]2O)C[C@@H]2O[C@](O)(C[C@@H](O)C[C@@H](O)[C@H](O)CC[C@@H](O)C[C@@H](O)CC(=O)O[C@H]1C)C[C@H](O)[C@H]2C(=O)O` (some centres unmarked) [VIII, N-methylglucamine salt of N-glycosyl derivative of amphotericin B] it was 0.1 µg/mL.

Staying with this assay, now noted: test organism not given; read-out: IC50.
For `C[C@@H]1[C@H](O)[C@@H](C)/C=C/C=C/CC/C=C/C=C/C=C/C=C/[C@H](O[C@@H]2O[C@H](C)[C@@H](O)[C@H](N)[C@@H]2O)C[C@@H]2O[C@](O)(C[C@@H](O)[C@H](O)CC[C@@H](O)C[C@@H](O)C[C@@H](O)CC(=O)O[C@H]1C)C[C@H](O)[C@H]2C(=O)O` [nystatin, reference compound], the IC50 was found to be 0.18 µg/mL (≈ 0.194 µM). The same measure, in the same setting: under `C[C@@H]1[C@H](O)[C@@H](C)/C=C/C=C/CC/C=C/C=C/C=C/C=C/[C@H](O[C@@H]2O[C@H](C)[C@@H](O)[C@H](NC3O[C@H](CO)[C@@H](O[C@H]4O[C@H](CO)[C@@H](O)[C@H](O)[C@H]4O)[C@H](O)[C@H]3O)[C@@H]2O)C[C@@H]2O[C@](O)(C[C@@H](O)[C@H](O)CC[C@@H](O)C[C@@H](O)C[C@@H](O)CC(=O)O[C@H]1C)C[C@H](O)[C@H]2C(=O)O` (some centres unmarked) [XI, N-methylglucamine salt of N-glycosyl nystatin] stands 0.45 µg/mL; under `C[C@@H]1[C@H](O)[C@@H](C)/C=C/C=C/CC/C=C/C=C/C=C/C=C/[C@H](O[C@@H]2O[C@H](C)[C@@H](O)[C@H](NC3O[C@H](CO)[C@H](O)[C@H](O)[C@H]3O)[C@@H]2O)C[C@@H]2O[C@](O)(C[C@@H](O)[C@H](O)CC[C@@H](O)C[C@@H](O)C[C@@H](O)CC(=O)O[C@H]1C)C[C@H](O)[C@H]2C(=O)O` (some centres unmarked) [X, N-methylglucamine salt of N-glycosyl nystatin], 0.45 µg/mL. Same read-out and setting: under `C[C@@H]1[C@H](O)[C@@H](C)/C=C/C=C/CC/C=C/C=C/C=C/C=C/[C@H](O[C@@H]2O[C@H](C)[C@@H](O)[C@H](NC3O[C@H](CO)[C@@H](O)[C@H](O)[C@H]3O)[C@@H]2O)C[C@@H]2O[C@](O)(C[C@@H](O)[C@H](O)CC[C@@H](O)C[C@@H](O)C[C@@H](O)CC(=O)O[C@H]1C)C[C@H](O)[C@H]2C(=O)O` (some centres unmarked) [VII, N-methylglucamine salt of the N-glycosyl derivative of nystatin] stands 0.45 µg/mL.
